Like-named read-outs stand apart in the source and are kept apart here.
Tests used:
[1] = target: MOR; conditions: cited from earlier work
[2] = system: parental HEK293 cells; format: cell-based, human
[3] = system: MOR G-protein signaling in HEK-MOR cells; format: cell-based, human
[4] = system: MOR kinase pathways in HEK-MOR cells; format: cell-based, human

COc1ccc2c3c1O[C@H]1[C@@H](O)C=C[C@H]4[C@@H](C2)NCC[C@@]341 [(-)-norcodeine]
Ki [1]: 267 nM

O=C1/C(=C/c2ccccc2)C[C@@]2(O)[C@H]3Cc4ccc(O)c5c4[C@@]2(CCN3CC2CC2)[C@H]1O5 [BNTX]
Ki [1]: 18 nM
DMR produced by ligand in parental HEK293 cells [2]: negative DMR

O=C(Cc1ccc(Cl)c(Cl)c1)N1CCCCC1CN1CCCC1 (stereo not drawn) [BRL-52537]
Ki [1]: 1560 nM
ligand-induced DMR in cholera toxin (CTx)-pretreated cells vs untreated [3]: reduce
maximal DMR response after SB202190 pretreatment vs untreated [4]: significantly reduced

C[C@@H](NC(=O)[C@@H](N)Cc1ccc(O)cc1)C(=O)NCC(=O)N(C)[C@@H](Cc1ccccc1)C(=O)NCCO [DAMGO]
ligand-induced DMR in pertussis toxin (PTx)-pretreated cells [3]: small P-DMR
maximal DMR response after SB202190 pretreatment vs untreated [4]: not completely blunted

CN(C(=O)Cc1ccc(Cl)c(Cl)c1)[C@H](CN1CCCC1)c1cccc(N=C=S)c1 [DIPPA, 2-(3,4-Dichlorophenyl)-N-methyl-N-[(1S)-1-(3-isothiocyanatophenyl)-2-(1-pyrrolidinyl)ethyl]acetamide]
IC50 [1]: 1800 nM
late DMR response after U0126 pretreatment vs untreated [4]: significantly suppressed
maximal DMR response after SB202190 pretreatment vs untreated [4]: significantly reduced
maximal DMR response after U0126 pretreatment vs untreated [4]: sensitive

CN(C(=O)Cc1ccc(Cl)c(Cl)c1)[C@H](CN1CCCC1)c1ccccc1 [ICI 199,441]
DMR produced by ligand in parental HEK293 cells ([2]; ligand 10 µM): small N-DMR

Oc1ccc2c3c1O[C@H]1c4c(c5ccccc5n4Cc4ccccc4)C[C@@]4(O)[C@@H](C2)N(CC2CC2)CC[C@]314 [N-benzylnaltrindole]
IC50 [1]: 11.2 nM

Oc1ccc2c3c1O[C@H]1c4oc5ccccc5c4C[C@@]4(O)[C@@H](C2)N(CC2CC2)CC[C@]314 [Naltriben]
Ki [1]: 80.8 nM

C=CCN1CCC2(C)c3cc(O)ccc3CC1C2C (stereo not drawn) [SKF10047]
Ki [1]: 1900 nM

NC(=O)[C@H](Cc1ccccc1)NC(=O)[C@H](Cc1ccccc1)NC(=O)[C@@H]1CCCN1C(=O)[C@@H](N)Cc1ccc(O)cc1 [endomorphin-2]
Ki [1]: 0.43 nM
ligand-induced DMR in cholera toxin (CTx)-pretreated cells vs untreated [3]: reduce

C=CCN1CC[C@]23CCCC[C@H]2[C@H]1Cc1ccc(O)cc13 [levallorphan]
Ki [1]: 1.7 nM

C=CC[N+]1(C)CC[C@]23c4c5ccc(O)c4O[C@H]2C(=O)CC[C@@]3(O)[C@H]1C5 (stereo partly drawn) [naloxone methionone]
Ki [1]: 28.9 nM

COc1cccc(C2(O)CCCCC2CN(C)C)c1 (stereo not drawn) [tramadol]
maximal DMR response after SB202190 pretreatment vs untreated [4]: significantly reduced
maximal DMR response after U0126 pretreatment vs untreated [4]: sensitive

COC(=O)/C=C/C(=O)N[C@@H]1CC[C@@]2(O)[C@H]3Cc4ccc(O)c5c4[C@@]2(CCN3CC2CC2)[C@H]1O5 [β-funaltrexamine]
Ki [1]: 0.33 nM
late DMR response after SP100625 pretreatment vs untreated [4]: potentiated
maximal DMR response after SP100625 pretreatment vs untreated [4]: enhanced

(D-Ala^2, D-Leu^5) enkephalin
Kd [1]: 150 nM

(met^5)-enkephalin
Ki [1]: 3 nM

DPDPE
Kd [1]: 600 nM

DSLET
Kd [1]: 120 nM
maximal DMR response after SB202190 pretreatment vs untreated [4]: significantly reduced

deltorphin II
Kd [1]: 3.3 nM

dynorphin A 1-8
Ki [1]: 22.3 nM

dynorphin A 1-13
Kd [1]: 31 nM
maximal DMR response after SB202190 pretreatment vs untreated [4]: significantly reduced
maximal DMR response after SP100625 pretreatment vs untreated [4]: enhanced

dynorphin B
Ki [1]: 13 nM

morphiceptin
IC50 [1]: 19.8 nM

nociceptin 1-13: ORL1 agonist
Ki [1]: 270 nM
